# Assay results from US11931365B2, “Use of PPAR-delta agonists in the treatment of disease” (Reneo Pharmaceuticals, Inc., priority 2022, dated 2024).
# What was measured:
# [1] = test system: healthy male volunteers, leg immobilization; test: Phase 1 placebo-controlled study in healthy volunteers with single limb immobilization; type: in vivo, human; settings: 100 mg twice daily for 28 days
# Experimental: In a prior clinical trial in healthy volunteers, Compound I was administered at dose of 100 mg twice daily for 28 days in healthy volunteers during and after a single limb immobilization (see NCT01524406). The study was conducted to evaluate the impact of Compound I on the recovery of muscle atrophy from leg immobilization, and improvements in cross section area (CSA) and muscle strength parameters expected in patients treated with study drug compared to those given placebo.
# This phase 1, randomized, parallel group, placebo-controlled study was conducted at 2 centers in the United States. Fifty participants were planned for enrollment, 25 per group; participants could be replaced upon sponsor approval.
# Screening was conducted 28 days before study start; eligibility was reviewed again at prespecified times during the study. Ambulatory, non-smoking, healthy male volunteers 30 to 55 years of age with a Body Mass Index (BMI) from 18 to 30 kg/m2 were recruited for the study. Key exclusion criteria included abnormal laboratory values at screening, a recent history of body weight fluctuations, positive urine drug screens, drug dependency or illicit drug use, professional sport participation within 30 days of screening, donation of whole blood within 90 days of dosing, and donation of plasma within 30 days of dosing. Concomitant medications within 14 days of dosing were not allowed unless approved by the sponsor. Those who had enrolled in another clinical trial within 90 days or had previously received Compound II were not allowed to participate.
# Participants were randomly assigned 1:1 to receive either Compound II (100 mg BID) or matching placebo for 28 days using a computer generated randomization schedule provided by the sponsor. The principal investigator, study center staff, and participants were blinded to treatment; the protocol was amended so that sponsor personnel were not blinded. This change was made to allow investigation of observations concerning adherence to the protocol, discussed further in the pharmacodynamic results. Compound II and placebo were provided as capsules identical in appearance, taken orally with 240 ml of water prior to meals. Study drug was administered at the study site on Days 1 (PM dose), 6 (AM dose), 13 (PM dose), and 14, 15, 16, 29 (AM doses). At all other times study drug was self-administered just before breakfast and dinner. Dates and times were recorded in a diary, with compliance determined from the diaries and capsule counts. Study drug supplies were packaged according to the randomization codes by a contract research organization. Each dispensed bottle was labeled with the randomization number. Individual capsules were re-dispensed from these bottles by the study site staff, maintaining the blind. The total study duration for each subject was 42 days. Participants stayed overnight from Day 1 and Days 13 to 16.
# Standardized meals, beverages and snacks were provided during the domicile periods. On Day 1, participants were leg-immobilized using a knee brace with […] on the left leg to allow driving. Walking crutches were provided to prevent weight bearing on the immobilized leg. An accelerometer was issued at screening and was used to count the number of steps per day. Participants were to walk 4000 to 6000 steps each day for the duration of the leg immobilization period, and recorded accelerometer readings each evening before bedtime. The brace was removed on Day 14, and participants resumed normal physical activity gradually from Days 16 to 29. After stopping study drug on Day 29, participants were to resume regular daily activity gradually for another 2 weeks. Consumption of prescribed medications or over the counter products was prohibited from 14 days prior to dosing and throughout the study, with the exception of the treatment of an adverse event. Participants were not to consume alcohol or caffeine containing food and beverages 3 days before each study visit and domicile periods. […]
# FXR = FXR (Homo sapiens, UniProt Q96RI1); test: Nuclear receptor activity
# [2] = test system: PPARδ regulated genes (CPT1b, PGC-1α); test: In vivo expression of PPARδ regulated genes in muscle; settings: mice muscle
# [3] = test system: Angiopoietin-like 4 (ANGPTL4); test: In vivo expression of PPAR regulated target gene in muscle; settings: rat muscle
# rat muscle cell lines = test: Fatty acid oxidation in muscle cell lines; type: cell-based
# FXR, sequence (Q96RI1 whole entry, species assumed): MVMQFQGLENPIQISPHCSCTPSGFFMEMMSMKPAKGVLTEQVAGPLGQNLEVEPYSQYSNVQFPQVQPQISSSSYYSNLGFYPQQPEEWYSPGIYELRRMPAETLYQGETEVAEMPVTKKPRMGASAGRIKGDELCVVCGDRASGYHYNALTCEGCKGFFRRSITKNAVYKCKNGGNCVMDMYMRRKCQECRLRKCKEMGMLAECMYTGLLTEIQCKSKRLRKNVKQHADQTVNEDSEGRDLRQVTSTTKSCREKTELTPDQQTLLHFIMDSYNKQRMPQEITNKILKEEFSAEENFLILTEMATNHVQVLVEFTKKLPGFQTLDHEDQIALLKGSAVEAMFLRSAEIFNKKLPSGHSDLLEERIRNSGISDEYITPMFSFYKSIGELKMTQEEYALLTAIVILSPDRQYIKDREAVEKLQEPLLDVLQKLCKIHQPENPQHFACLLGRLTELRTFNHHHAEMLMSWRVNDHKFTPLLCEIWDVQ
structure (smiles),measurement,setting,value
"Cc1cc(OC/C=C(/c2ccc(F)cc2)c2ccc(C#CCN3CCOCC3)cc2)ccc1OCC(=O)O [Compound I, (E)-2-(4-((3-(4-fluorophenyl)-3-(4-(3-morpholinoprop-1-yn-1-yl)phenyl)allyl)oxy)-2-methylphenoxy)acetic acid]",expression of PPAR regulated target genes (ANGPTL4) and fatty acid metabolism genes (PDK4) in muscle biopsies,[1],significant increases
same,mean knee extension strength from baseline vs placebo,[1]; Day 21,significant increase
same,activity on nuclear receptor FXR,FXR,did not show any
same,"expression patterns of PPARδ regulated genes (CPT1b, PGC-1α)",[2],altered the expression patterns
same,expression of ANGPTL4,[3],increased the expression
same,fatty acid oxidation,rat muscle cell lines,dose-dependent increase
